Data from ChEMBL document CHEMBL5465560, “Selectivity Literature for EUbOPEN Chemogenomic Library” (2024).
One block for each molecule: values may come before it.

What was measured:
[1] = biological target: T1, Calcium/calmodulin-dependent protein kinase type IV (Homo sapiens) (UniProt Q16566); settings: at 10 µM
T1 sequence (whole entry): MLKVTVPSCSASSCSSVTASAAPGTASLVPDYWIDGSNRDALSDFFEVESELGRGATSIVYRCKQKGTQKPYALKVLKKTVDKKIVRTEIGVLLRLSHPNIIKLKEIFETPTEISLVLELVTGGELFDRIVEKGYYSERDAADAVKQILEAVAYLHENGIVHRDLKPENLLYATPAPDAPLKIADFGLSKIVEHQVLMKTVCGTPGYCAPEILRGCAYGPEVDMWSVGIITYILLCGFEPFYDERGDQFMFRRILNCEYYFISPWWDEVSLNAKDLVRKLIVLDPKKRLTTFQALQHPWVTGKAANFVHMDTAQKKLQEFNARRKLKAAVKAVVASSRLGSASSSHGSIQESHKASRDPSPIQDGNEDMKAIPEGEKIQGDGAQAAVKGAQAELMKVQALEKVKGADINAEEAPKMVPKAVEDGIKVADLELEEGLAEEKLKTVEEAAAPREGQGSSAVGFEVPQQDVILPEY

[2] = biological target: Tyrosine-protein kinase JAK2 (Homo sapiens, UniProt O60674); assay: Selectivity interaction (Ambit KINOMEscan and KiNATiv profiling in Jurkat cells) EUB0000090b JAK2; assay type: cell-based; settings: at 1 µM
Tyrosine-protein kinase JAK2, sequence (O60674 whole entry): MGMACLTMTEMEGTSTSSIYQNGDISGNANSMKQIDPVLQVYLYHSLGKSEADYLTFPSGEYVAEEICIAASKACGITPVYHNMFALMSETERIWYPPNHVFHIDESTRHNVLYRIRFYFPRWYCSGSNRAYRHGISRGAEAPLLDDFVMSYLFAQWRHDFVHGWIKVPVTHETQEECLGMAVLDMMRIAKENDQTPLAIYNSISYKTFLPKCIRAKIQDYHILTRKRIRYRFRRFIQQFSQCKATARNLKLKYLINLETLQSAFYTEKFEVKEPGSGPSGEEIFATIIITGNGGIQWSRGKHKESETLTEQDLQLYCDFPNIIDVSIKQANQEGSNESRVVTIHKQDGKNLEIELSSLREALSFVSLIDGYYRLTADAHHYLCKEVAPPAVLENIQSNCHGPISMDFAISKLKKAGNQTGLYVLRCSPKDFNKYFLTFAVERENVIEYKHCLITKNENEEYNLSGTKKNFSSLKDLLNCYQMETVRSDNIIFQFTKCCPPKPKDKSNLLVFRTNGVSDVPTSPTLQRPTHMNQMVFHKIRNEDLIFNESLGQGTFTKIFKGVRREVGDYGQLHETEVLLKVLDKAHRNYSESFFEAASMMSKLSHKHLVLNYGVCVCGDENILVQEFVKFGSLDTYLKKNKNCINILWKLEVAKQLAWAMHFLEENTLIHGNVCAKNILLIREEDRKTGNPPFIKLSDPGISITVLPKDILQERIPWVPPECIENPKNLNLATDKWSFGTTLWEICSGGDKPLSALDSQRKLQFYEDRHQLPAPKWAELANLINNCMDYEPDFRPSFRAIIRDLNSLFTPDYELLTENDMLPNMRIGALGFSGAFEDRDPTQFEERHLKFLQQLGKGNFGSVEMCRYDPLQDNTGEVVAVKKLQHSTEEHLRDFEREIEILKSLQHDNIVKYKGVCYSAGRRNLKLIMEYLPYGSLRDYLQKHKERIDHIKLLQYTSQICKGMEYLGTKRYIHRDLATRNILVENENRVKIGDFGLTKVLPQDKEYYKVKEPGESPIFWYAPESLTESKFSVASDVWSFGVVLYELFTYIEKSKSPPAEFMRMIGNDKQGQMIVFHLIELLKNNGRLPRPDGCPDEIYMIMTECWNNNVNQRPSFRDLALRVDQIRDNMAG

[3] = biological target: T2, Serine/threonine-protein kinase greatwall (Homo sapiens) (UniProt Q96GX5); assay: Selectivity interaction (ActivX KiNativ screen (kinase selectivity in THP-1 cell lysates)) EUB0000639a MASTL; assay type: subcellular; settings: lysate, at 1 µM
T2 sequence (whole entry): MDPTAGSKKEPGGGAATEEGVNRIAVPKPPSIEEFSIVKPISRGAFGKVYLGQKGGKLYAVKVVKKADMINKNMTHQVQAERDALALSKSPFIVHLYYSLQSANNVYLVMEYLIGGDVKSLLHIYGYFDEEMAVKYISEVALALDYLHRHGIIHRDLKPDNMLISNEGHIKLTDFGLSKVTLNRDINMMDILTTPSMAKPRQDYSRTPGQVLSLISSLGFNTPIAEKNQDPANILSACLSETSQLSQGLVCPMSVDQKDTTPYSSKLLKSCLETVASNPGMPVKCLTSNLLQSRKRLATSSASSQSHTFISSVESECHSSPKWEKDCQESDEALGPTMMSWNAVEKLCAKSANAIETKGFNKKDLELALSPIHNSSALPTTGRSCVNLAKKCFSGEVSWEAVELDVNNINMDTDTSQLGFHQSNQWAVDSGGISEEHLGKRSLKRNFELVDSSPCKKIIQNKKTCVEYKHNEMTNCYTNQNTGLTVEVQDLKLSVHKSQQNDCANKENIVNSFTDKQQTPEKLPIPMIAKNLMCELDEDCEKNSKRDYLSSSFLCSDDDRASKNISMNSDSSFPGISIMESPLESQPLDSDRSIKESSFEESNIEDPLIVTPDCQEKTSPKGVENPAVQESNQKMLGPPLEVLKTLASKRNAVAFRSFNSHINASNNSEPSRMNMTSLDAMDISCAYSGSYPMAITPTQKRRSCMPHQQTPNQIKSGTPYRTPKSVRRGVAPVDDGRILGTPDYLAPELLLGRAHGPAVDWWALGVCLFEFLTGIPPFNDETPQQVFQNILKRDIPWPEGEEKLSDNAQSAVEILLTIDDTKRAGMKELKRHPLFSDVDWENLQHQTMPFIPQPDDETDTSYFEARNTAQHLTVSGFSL

[4] = biological target: T3, Mitogen-activated protein kinase kinase kinase 15 (Homo sapiens) (UniProt Q6ZN16); assay: Selectivity interaction (KinomeScan (DiscoverX)) EUB0001619a MAP3K15; settings: at 1 µM
T3 sequence (whole entry): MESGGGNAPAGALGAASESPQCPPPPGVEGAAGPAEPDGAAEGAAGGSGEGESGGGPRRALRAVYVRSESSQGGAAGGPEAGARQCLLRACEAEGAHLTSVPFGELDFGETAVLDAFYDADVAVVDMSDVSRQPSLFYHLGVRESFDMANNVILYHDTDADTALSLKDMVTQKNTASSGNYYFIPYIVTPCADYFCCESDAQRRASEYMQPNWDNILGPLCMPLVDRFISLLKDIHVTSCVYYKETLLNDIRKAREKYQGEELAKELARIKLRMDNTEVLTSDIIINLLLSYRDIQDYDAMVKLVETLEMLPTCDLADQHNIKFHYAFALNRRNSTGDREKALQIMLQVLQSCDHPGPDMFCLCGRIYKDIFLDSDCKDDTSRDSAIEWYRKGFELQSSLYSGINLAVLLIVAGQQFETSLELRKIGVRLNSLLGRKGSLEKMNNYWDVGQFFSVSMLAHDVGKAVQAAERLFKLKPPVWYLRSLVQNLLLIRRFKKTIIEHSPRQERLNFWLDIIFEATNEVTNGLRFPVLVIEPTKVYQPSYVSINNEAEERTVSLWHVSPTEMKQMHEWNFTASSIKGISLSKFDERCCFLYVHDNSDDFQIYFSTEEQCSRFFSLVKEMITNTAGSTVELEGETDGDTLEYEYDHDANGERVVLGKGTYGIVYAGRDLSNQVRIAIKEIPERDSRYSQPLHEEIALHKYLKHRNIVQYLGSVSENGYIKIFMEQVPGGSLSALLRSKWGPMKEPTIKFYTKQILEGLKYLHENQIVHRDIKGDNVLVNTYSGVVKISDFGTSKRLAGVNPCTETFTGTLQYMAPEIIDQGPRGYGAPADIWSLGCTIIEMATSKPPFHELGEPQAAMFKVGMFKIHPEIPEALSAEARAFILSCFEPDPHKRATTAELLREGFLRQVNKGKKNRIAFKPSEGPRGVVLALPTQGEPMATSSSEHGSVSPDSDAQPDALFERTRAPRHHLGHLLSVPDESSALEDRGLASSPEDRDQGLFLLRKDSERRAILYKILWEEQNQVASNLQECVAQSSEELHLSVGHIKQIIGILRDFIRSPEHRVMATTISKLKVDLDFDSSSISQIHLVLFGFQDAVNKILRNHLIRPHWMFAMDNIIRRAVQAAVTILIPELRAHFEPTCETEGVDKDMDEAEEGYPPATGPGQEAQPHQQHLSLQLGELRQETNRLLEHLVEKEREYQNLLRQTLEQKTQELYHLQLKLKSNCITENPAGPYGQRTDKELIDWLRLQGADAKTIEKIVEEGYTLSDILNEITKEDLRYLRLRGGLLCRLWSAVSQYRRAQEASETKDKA

[5] = biological target: Cyclin-dependent kinase 18 (Homo sapiens) (UniProt Q07002); assay: Selectivity interaction (KinomeScan (DiscoverX)) EUB0000618a CDK18; settings: at 10 µM
Cyclin-dependent kinase 18 (Homo sapiens), sequence (Q07002 whole entry): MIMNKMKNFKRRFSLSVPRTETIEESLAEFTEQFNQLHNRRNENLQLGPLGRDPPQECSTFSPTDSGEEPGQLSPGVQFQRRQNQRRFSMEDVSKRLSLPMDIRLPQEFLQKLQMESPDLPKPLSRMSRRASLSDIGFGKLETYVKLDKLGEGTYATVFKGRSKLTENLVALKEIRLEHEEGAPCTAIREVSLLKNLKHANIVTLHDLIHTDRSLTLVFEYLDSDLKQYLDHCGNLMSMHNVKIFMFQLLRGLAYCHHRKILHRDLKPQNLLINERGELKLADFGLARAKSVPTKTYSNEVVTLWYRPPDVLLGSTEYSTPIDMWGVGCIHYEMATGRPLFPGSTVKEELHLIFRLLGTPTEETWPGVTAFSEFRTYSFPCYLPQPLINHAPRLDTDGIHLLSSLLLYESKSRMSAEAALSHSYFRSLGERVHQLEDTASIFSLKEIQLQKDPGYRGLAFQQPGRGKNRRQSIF

Structure (SMILES): Cc1cc([C@@H](C)Nc2ccccc2C(=O)O)c2nc(N3CCOCC3)cc(=O)n2c1 [AZD-6482]
% of control [1]: 100%

Structure (SMILES): CN(C)C/C=C/C(=O)Nc1ccc(C(=O)N2CCCC(Nc3ncc(Cl)c(-c4c[nH]c5ccccc45)n3)C2)cc1 (stereo not given)
% of control [2]: 89%

% of inhibition [3]: 35.1%
Structure (SMILES): CC[C@@H]1[C@H](F)C(=O)N[C@@H]1COc1nccc2cc(C(N)=O)c(OC)cc12 [ZIMLOVISERTIB]

Structure (SMILES): N#Cc1cccc(-c2c[nH]c3ncnc(N4CCOCC4)c23)c1
% of control [4]: 74%

Structure (SMILES): O[C@H]1CC[C@H](Nc2ncc3nc(Nc4c(F)cc(F)cc4F)n([C@H]4CCOC4)c3n2)CC1
% of control [5]: 100%
